Literature values as cited in patent US7842280B2, “Flexibly labeling peptides” (Case Western Reserve University, priority 2006, dated 2010).

Details: Gd^3+-DOTA used in clinical MRI studies; comparison value; cited from earlier work

For `O=C([O-])CN1CCN(CC(=O)[O-])CCN(CC(=O)[O-])CCN(CC(=O)[O-])CC1.[Gd+3]` [Gd^3+-DOTA], the relaxivity is listed as 3.83 m mM^−1 sec^−1.
